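Five concentrations, 48 hours, 96-well plates. GI50 marks 50% less growth.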 Active and inactive are the calls of the source. Rule as the data show it: active = GI50 up to about 1.1 µM and inactive = higher.
Assays:
Test in all cases: NCI tumour cell line growth inhibition, 48 h
786-0 = system: 786-0
A498 = system: A498
A549 = system: A549
ACHN = system: ACHN
CAKI-1 = system: CAKI-1
CCRF-CEM = system: CCRF-CEM
COLO 205 = system: COLO 205
DMS-114 = system: DMS-114
DMS-273 = system: DMS-273
EKVX = system: EKVX
HCC 2998 = system: HCC 2998
HCT-116 = system: HCT-116
HCT-15 = system: HCT-15
HL-60 = system: HL-60
HOP-18 = system: HOP-18
HOP-62 = system: HOP-62
HOP-92 = system: HOP-92
HT-29 = system: HT-29
IGROV-1 = system: IGROV-1
K562 = system: K562
KM-20L2 = system: KM-20L2
KM12 = system: KM12
LOX IMVI = system: LOX IMVI
LXFL 529 = system: LXFL 529
M14 = system: M14
M19-MEL = system: M19-MEL
MOLT-4 = system: MOLT-4
Malme-3M = system: Malme-3M
NCI-H226 = system: NCI-H226
NCI-H23 = system: NCI-H23
NCI-H460 = system: NCI-H460
NCI-H522 = system: NCI-H522
OVCAR-3 = system: OVCAR-3
OVCAR-4 = system: OVCAR-4
OVCAR-5 = system: OVCAR-5
OVCAR-8 = system: OVCAR-8
RPMI-8226 = system: RPMI-8226
RXF 393 = system: RXF 393
RXF 631 = system: RXF 631
SF-268 = system: SF-268
SF-295 = system: SF-295
SF-539 = system: SF-539
SK-MEL-28 = system: SK-MEL-28
SK-MEL-2 = system: SK-MEL-2
SK-MEL-5 = system: SK-MEL-5
SK-OV-3 = system: SK-OV-3
SN12C = system: SN12C
SNB-19 = system: SNB-19
SNB-75 = system: SNB-75
SNB-78 = system: SNB-78
SR = system: SR
SW-620 = system: SW-620
TK-10 = system: TK-10
U-251 = system: U-251
UACC-257 = system: UACC-257
UACC-62 = system: UACC-62
UO-31 = system: UO-31
XF498 = system: XF498
BT-549 = system: BT-549
DLD-1 = system: DLD-1
DU-145 = system: DU-145
Hs-578T = system: Hs-578T
MCF7 = system: MCF7
MDA-MB-231 = system: MDA-MB-231
MDA-MB-435 = system: MDA-MB-435
MDA-N = system: MDA-N
NCI/ADR-RES = system: NCI/ADR-RES
PC-3 = system: PC-3
T47D = system: T47D

Measured: GI50

CCOc1ccc(NC(=O)C(=O)CC(=O)c2c[n+]([O-])c3cc(C)c(C)cc3[n+]2[O-])cc1
> 100 µM: HCT-15
inactive: 786-0 > 100 µM | A498 > 100 µM | A549 > 100 µM | ACHN > 100 µM | CAKI-1 > 100 µM | CCRF-CEM > 100 µM | COLO 205 > 100 µM | DMS-114 > 100 µM | DMS-273 > 100 µM | EKVX 90.8 µM | HCC 2998 > 100 µM | HCT-116 > 100 µM | HL-60 > 100 µM | HOP-18 > 100 µM | HOP-62 > 100 µM | HOP-92 > 100 µM | HT-29 > 100 µM | IGROV-1 > 100 µM | K562 > 100 µM | KM-20L2 > 100 µM | KM12 > 100 µM | LOX IMVI > 100 µM | LXFL 529 > 100 µM | M14 > 100 µM | M19-MEL > 100 µM | MOLT-4 > 100 µM | Malme-3M > 100 µM | NCI-H226 > 100 µM | NCI-H23 > 100 µM | NCI-H460 > 100 µM | NCI-H522 > 100 µM | OVCAR-3 > 100 µM | OVCAR-4 > 100 µM | OVCAR-5 > 100 µM | OVCAR-8 > 100 µM | RPMI-8226 > 100 µM | RXF 393 > 100 µM | RXF 631 > 100 µM | SF-268 > 100 µM | SF-295 > 100 µM | SF-539 > 100 µM | SK-MEL-28 > 100 µM | SK-MEL-2 > 100 µM | SK-MEL-5 > 100 µM | SK-OV-3 > 100 µM | SN12C > 100 µM | SNB-19 > 100 µM | SNB-75 > 100 µM | SNB-78 > 100 µM | SR > 100 µM | SW-620 > 100 µM | TK-10 > 100 µM | U-251 > 100 µM | UACC-257 > 100 µM | UACC-62 > 100 µM | UO-31 > 100 µM | XF498 > 100 µM

CC(=O)OCC1OC(n2cc(F)c(=O)[nH]c2=O)C(OC(C)=O)C1OC(C)=O (stereo unspecified)
13.7 µM: HCT-15
inactive: 786-0 12.2 µM | A498 61.2 µM | A549 16.7 µM | ACHN 12.9 µM | BT-549 68.5 µM | CAKI-1 25.9 µM | CCRF-CEM 6 µM | COLO 205 12.2 µM | DLD-1 15.4 µM | DMS-114 39.8 µM | DU-145 70.5 µM | EKVX > 75.2 µM | HCC 2998 7.1 µM | HCT-116 4.25 µM | HL-60 27.9 µM | HOP-18 38 µM | HOP-62 44 µM | HOP-92 16.7 µM | HT-29 27.9 µM | Hs-578T > 59.3 µM | IGROV-1 52.4 µM | K562 9.27 µM | KM-20L2 54.1 µM | KM12 8.41 µM | LOX IMVI 5.9 µM | LXFL 529 4.31 µM | M14 48.9 µM | M19-MEL 4.07 µM | MCF7 1.71 µM | MDA-MB-231 34.6 µM | MDA-MB-435 17 µM | MDA-N 11.5 µM | MOLT-4 4.13 µM | Malme-3M 5.05 µM | NCI-H226 59.8 µM | NCI-H23 75.2 µM | NCI-H460 5.37 µM | NCI-H522 16.6 µM | NCI/ADR-RES 37.4 µM | OVCAR-3 23.3 µM | OVCAR-4 30.3 µM | OVCAR-5 33.8 µM | OVCAR-8 26 µM | PC-3 73.8 µM | RPMI-8226 19.8 µM | RXF 393 45.9 µM | RXF 631 15.5 µM | SF-268 12.5 µM | SF-295 52.7 µM | SF-539 7.55 µM | SK-MEL-28 25.2 µM | SK-MEL-2 28.2 µM | SK-MEL-5 56 µM | SK-OV-3 > 73.5 µM | SN12C 32.5 µM | SNB-19 30.8 µM | SNB-75 23.6 µM | SNB-78 > 100 µM | SR 6.73 µM | SW-620 9.86 µM | T47D 19.2 µM | TK-10 > 100 µM | U-251 13.4 µM | UACC-257 47.3 µM | UACC-62 17.5 µM | UO-31 11.8 µM | XF498 4.57 µM
